Experimental data taken from ChEMBL document CHEMBL3045272, “Synthesis and fungicidal activities of novel bis(trifluoromethyl)phenyl-based strobilurins” (J Agric Food Chem, 2008).
Values after ≈ are worked out from the molar mass of the structure shown.

Legend:
[1] = system: Podosphaera fuliginea; experiment: Fungicidal activity against Podosphaera fuliginea infected compound pre-treated cucumber plants assessed as disease preventive activity at 6.25 mg/L measured after 1 or 2 weeks; assay type: functional
[2] = system: Blumeria graminis; experiment: Fungicidal activity against Blumeria graminis infected wheat plants exposed to compound treatment 1 day post infection assessed as disease curative activity measured after 1 or 2 weeks; assay type: functional, organism-based
[3] = system: Blumeria graminis; experiment: Fungicidal activity against Blumeria graminis infected compound pre-treated wheat plants assessed as disease preventive activity measured after 1 or 2 weeks; assay type: functional, organism-based
[4] = system: Blumeria graminis; experiment: Fungicidal activity against Blumeria graminis infected compound pre-treated wheat plants assessed as disease preventive activity at 1.5 ppm measured after 1 or 2 weeks; assay type: functional
[5] = system: Blumeria graminis; experiment: Fungicidal activity against Blumeria graminis infected compound pre-treated wheat plants assessed as disease preventive activity at 1.56 mg/L measured after 1 or 2 weeks; assay type: functional
[6] = system: Blumeria graminis; experiment: Fungicidal activity against Blumeria graminis infected wheat plants exposed to compound treatment 1 day post infection assessed as disease curative activity at 0.78 mg/L measured after 1 or 2 weeks; assay type: functional
[7] = system: Podosphaera fuliginea; experiment: Fungicidal activity against Podosphaera fuliginea infected cucumber plants exposed to compound treatment 1 day post infection assessed as disease curative activity at 1.56 mg/L measured after 1 or 2 weeks; assay type: functional
[8] = system: Podosphaera fuliginea; experiment: Fungicidal activity against Podosphaera fuliginea infected compound pre-treated cucumber plants assessed as disease preventive activity at 3.12 mg/L measured after 1 or 2 weeks; assay type: functional
[9] = system: Blumeria graminis; experiment: Fungicidal activity against Blumeria graminis infected compound pre-treated wheat plants assessed as disease preventive activity at 6.25 mg/L measured after 1 or 2 weeks; assay type: functional
[10] = system: Podosphaera fuliginea; experiment: Fungicidal activity against Podosphaera fuliginea infected cucumber plants exposed to compound treatment 1 day post infection assessed as disease curative activity at 6.25 mg/L measured after 1 or 2 weeks; assay type: functional
[11] = system: Blumeria graminis; experiment: Fungicidal activity against Blumeria graminis infected compound pre-treated wheat plants assessed as disease preventive activity at 6.2 ppm measured after 1 or 2 weeks; assay type: functional
[12] = system: Podosphaera fuliginea; experiment: Fungicidal activity against Podosphaera fuliginea infected cucumber plants exposed to compound treatment 1 day post infection assessed as disease curative activity at 0.78 mg/L measured after 1 or 2 weeks; assay type: functional
[13] = system: Blumeria graminis; experiment: Fungicidal activity against Blumeria graminis infected compound pre-treated wheat plants assessed as disease preventive activity at 3.1 ppm measured after 1 or 2 weeks; assay type: functional
[14] = system: Blumeria graminis; experiment: Fungicidal activity against Blumeria graminis infected wheat plants exposed to compound treatment 1 day post infection assessed as disease curative activity at 1.56 mg/L measured after 1 or 2 weeks; assay type: functional
[15] = system: Podosphaera fuliginea; experiment: Fungicidal activity against Podosphaera fuliginea infected cucumber plants exposed to compound treatment 1 day post infection assessed as disease curative activity measured after 1 or 2 weeks; assay type: functional, organism-based
[16] = system: Blumeria graminis; experiment: Fungicidal activity against Blumeria graminis infected compound pre-treated wheat plants assessed as disease preventive activity at 100 ppm measured after 1 or 2 weeks; assay type: functional
[17] = system: Blumeria graminis; experiment: Fungicidal activity against Blumeria graminis infected wheat plants exposed to compound treatment 1 day post infection assessed as disease curative activity at 6.25 mg/L measured after 1 or 2 weeks; assay type: functional
[18] = system: Blumeria graminis; experiment: Fungicidal activity against Blumeria graminis infected compound pre-treated wheat plants assessed as disease preventive activity at 3.12 mg/L measured after 1 or 2 weeks; assay type: functional
[19] = system: Blumeria graminis; experiment: Fungicidal activity against Blumeria graminis infected compound pre-treated wheat plants assessed as disease preventive activity at 500 ppm measured after 1 or 2 weeks; assay type: functional
[20] = system: Podosphaera fuliginea; experiment: Fungicidal activity against Podosphaera fuliginea infected compound pre-treated cucumber plants assessed as disease preventive activity at measured after 1 or 2 weeks; assay type: functional, organism-based
[21] = system: Podosphaera fuliginea; experiment: Fungicidal activity against Podosphaera fuliginea infected compound pre-treated cucumber plants assessed as disease preventive activity at 0.78 mg/L measured after 1 or 2 weeks; assay type: functional
[22] = system: Podosphaera fuliginea; experiment: Fungicidal activity against Podosphaera fuliginea infected cucumber plants exposed to compound treatment 1 day post infection assessed as disease curative activity at 3.12 mg/L measured after 1 or 2 weeks; assay type: functional
[23] = system: Blumeria graminis; experiment: Fungicidal activity against Blumeria graminis infected wheat plants exposed to compound treatment 1 day post infection assessed as disease curative activity at 3.12 mg/L measured after 1 or 2 weeks; assay type: functional
[24] = system: Blumeria graminis; experiment: Fungicidal activity against Blumeria graminis infected compound pre-treated wheat plants assessed as disease preventive activity at 0.78 mg/L measured after 1 or 2 weeks; assay type: functional
[25] = system: Podosphaera fuliginea; experiment: Fungicidal activity against Podosphaera fuliginea infected compound pre-treated cucumber plants assessed as disease preventive activity at 1.56 mg/L measured after 1 or 2 weeks; assay type: functional

## CO/C=C(/C(=O)OC)c1ccccc1CO/N=C(\OC)c1cc(C(F)(F)F)cc(C(F)(F)F)c1
[1]
  Activity: 100%
[2]
  EC50: 1.5 µg/mL (≈ 3.05 µM)
  EC90: 4.8 µg/mL (≈ 9.77 µM)
[3]
  EC50: 1.2 µg/mL (≈ 2.44 µM)
  EC90: 2.8 µg/mL (≈ 5.7 µM)
[4]
  Activity: 98%
[5]
  Activity: 60%
[6]
  Activity: 20%
[7]
  Activity: 92%
[8]
  Activity: 100%
[9]
  Activity: 100%
[10]
  Activity: 100%
[11]
  Activity: 100%
[12]
  Activity: 56%
[13]
  Activity: 100%
[14]
  Activity: 50%
[15]
  EC50: 0.8 µg/mL (≈ 1.63 µM)
  EC90: 1.4 µg/mL (≈ 2.85 µM)
[16]
  Activity: 100%
[17]
  Activity: 94%
[18]
  Activity: 81%
[19]
  Activity: 100%
[20]
  EC50: 0.8 µg/mL (≈ 1.63 µM)
  EC90: 1.5 µg/mL (≈ 3.05 µM)
[21]
  Activity: 59%
[22]
  Activity: 100%
[23]
  Activity: 82%
[24]
  Activity: 20%
[25]
  Activity: 80%

## CNC(=O)/C(=N/OC)c1ccccc1CO/N=C(\OC)c1cc(C(F)(F)F)cc(C(F)(F)F)c1
[19]
  Activity: 90%

## CO/N=C(/C1=NOCCO1)c1ccccc1CO/N=C(\OC)c1cc(C(F)(F)F)cc(C(F)(F)F)c1
[1]
  Activity: 100%
[2]
  EC50: 1 µg/mL (≈ 1.93 µM)
  EC90: 2.4 µg/mL (≈ 4.62 µM)
[3]
  EC50: 0.9 µg/mL (≈ 1.73 µM)
  EC90: 2 µg/mL (≈ 3.85 µM)
[4]
  Activity: 95%
[5]
  Activity: 75%
[6]
  Activity: 35%
[7]
  Activity: 80%
[8]
  Activity: 100%
[9]
  Activity: 100%
[10]
  Activity: 100%
[11]
  Activity: 100%
[12]
  Activity: 60%
[13]
  Activity: 96%
[14]
  Activity: 70%
[15]
  EC50: 0.8 µg/mL (≈ 1.54 µM)
  EC90: 1.5 µg/mL (≈ 2.89 µM)
[16]
  Activity: 100%
[17]
  Activity: 100%
[18]
  Activity: 98%
[19]
  Activity: 100%
[20]
  EC50: 0.8 µg/mL (≈ 1.54 µM)
  EC90: 1.6 µg/mL (≈ 3.08 µM)
[21]
  Activity: 55%
[22]
  Activity: 100%
[23]
  Activity: 90%
[24]
  Activity: 30%
[25]
  Activity: 75%

## CCS/C(=N\OCc1ccccc1/C(=N\OC)C(=O)OC)c1cc(C(F)(F)F)cc(C(F)(F)F)c1
[19]
  Activity: 85%

## CO/C=C(/C(=O)OC)c1ccccc1CO/N=C(\N)c1cc(C(F)(F)F)cc(C(F)(F)F)c1
[4]
  Activity: 40%
[11]
  Activity: 90%
[13]
  Activity: 75%
[16]
  Activity: 95%
[19]
  Activity: 100%

## CO/N=C(/C(=O)OC)c1ccccc1CO/N=C(\SC)c1cc(C(F)(F)F)cc(C(F)(F)F)c1
[16]
  Activity: 80%
[19]
  Activity: 100%

## COC(=O)N(OC)c1ccccc1CO/N=C(\SC)c1cc(C(F)(F)F)cc(C(F)(F)F)c1
[11]
  Activity: 65%
[13]
  Activity: 30%
[16]
  Activity: 90%
[19]
  Activity: 90%

## CO/C=C(/C(=O)OC)c1ccccc1CO/N=C(/c1cc(C(F)(F)F)cc(C(F)(F)F)c1)[S+](C)[O-] (centres undefined)
[19]
  Activity: 70%

## CNC(=O)/C(=N/OC)c1ccccc1Oc1ccccc1 [METOMINOSTROBIN]
[4]
  Activity: 65%
[11]
  Activity: 95%
[13]
  Activity: 85%
[16]
  Activity: 100%
[19]
  Activity: 100%

## CO/N=C(/C(=O)OC)c1ccccc1CO/N=C(\OC)c1cc(C(F)(F)F)cc(C(F)(F)F)c1
[4]
  Activity: 80%
[11]
  Activity: 100%
[13]
  Activity: 98%
[16]
  Activity: 100%
[19]
  Activity: 100%

## CO/N=C(/C(=O)OC)c1ccccc1CO/N=C(\N)c1cc(C(F)(F)F)cc(C(F)(F)F)c1
[19]
  Activity: 30%

## CCO/C(=N\OCc1ccccc1/C(=C\OC)C(=O)OC)c1cc(C(F)(F)F)cc(C(F)(F)F)c1
[4]
  Activity: 35%
[11]
  Activity: 90%
[13]
  Activity: 60%
[16]
  Activity: 100%
[19]
  Activity: 100%

## CO/C=C(/C(=O)OC)c1ccccc1CO/N=C(/c1cc(C(F)(F)F)cc(C(F)(F)F)c1)S(C)(=O)=O
[19]
  Activity: 70%

## CO/N=C(/C1=NOCCO1)c1ccccc1CO/N=C(\SC)c1cc(C(F)(F)F)cc(C(F)(F)F)c1
[11]
  Activity: 20%
[13]
  Activity: 10%
[16]
  Activity: 100%
[19]
  Activity: 100%

## CNC(=O)/C(=N/OC)c1ccccc1CO/N=C(\SC)c1cc(C(F)(F)F)cc(C(F)(F)F)c1
[11]
  Activity: 40%
[13]
  Activity: 25%
[16]
  Activity: 100%
[19]
  Activity: 100%

## CCO/C(=N\OCc1ccccc1/C(=N\OC)C(=O)OC)c1cc(C(F)(F)F)cc(C(F)(F)F)c1
[4]
  Activity: 15%
[11]
  Activity: 80%
[13]
  Activity: 50%
[16]
  Activity: 100%
[19]
  Activity: 100%

## CO/C=C(/C(=O)OC)c1ccccc1CO/N=C(\SC(C)C)c1cc(C(F)(F)F)cc(C(F)(F)F)c1
[19]
  Activity: 85%

## CO/C=C(/C(=O)OC)c1ccccc1CO/N=C(\SC)c1cc(C(F)(F)F)cc(C(F)(F)F)c1
[4]
  Activity: 75%
[11]
  Activity: 98%
[13]
  Activity: 93%
[16]
  Activity: 100%
[19]
  Activity: 100%

## CO/C=C(/C(=O)OC)c1ccccc1Oc1cc(Oc2ccccc2C#N)ncn1 [AZOXYSTROBIN]
[1]
  Activity: 95%
[2]
  EC50: 1.7 µg/mL (≈ 4.21 µM)
  EC90: 5.9 µg/mL (≈ 14.6 µM)
[3]
  EC50: 1.7 µg/mL (≈ 4.21 µM)
  EC90: 7 µg/mL (≈ 17.4 µM)
[4]
  Activity: 62%
[5]
  Activity: 50%
[6]
  Activity: 15%
[7]
  Activity: 80%
[8]
  Activity: 80%
[9]
  Activity: 90%
[10]
  Activity: 100%
[11]
  Activity: 85%
[12]
  Activity: 55%
[13]
  Activity: 80%
[14]
  Activity: 52%
[15]
  EC50: 0.8 µg/mL (≈ 1.98 µM)
  EC90: 2.1 µg/mL (≈ 5.21 µM)
[16]
  Activity: 100%
[17]
  Activity: 89%
[18]
  Activity: 65%
[19]
  Activity: 100%
[20]
  EC50: 1.2 µg/mL (≈ 2.97 µM)
  EC90: 4.5 µg/mL (≈ 11.2 µM)
[21]
  Activity: 35%
[22]
  Activity: 90%
[23]
  Activity: 78%
[24]
  Activity: 20%
[25]
  Activity: 60%

## COC(=O)N(OC)c1ccccc1CO/N=C(\OC)c1cc(C(F)(F)F)cc(C(F)(F)F)c1
[4]
  Activity: 10%
[11]
  Activity: 80%
[13]
  Activity: 60%
[16]
  Activity: 100%
[19]
  Activity: 100%

## CN/C(=N\OCc1ccccc1/C(=N\OC)C(=O)OC)c1cc(C(F)(F)F)cc(C(F)(F)F)c1
[4]
  Activity: 70%
[11]
  Activity: 93%
[13]
  Activity: 90%
[16]
  Activity: 100%
[19]
  Activity: 100%

## CN/C(=N\OCc1ccccc1/C(=C\OC)C(=O)OC)c1cc(C(F)(F)F)cc(C(F)(F)F)c1
[4]
  Activity: 25%
[11]
  Activity: 90%
[13]
  Activity: 65%
[16]
  Activity: 100%
[19]
  Activity: 100%

## CCS/C(=N\OCc1ccccc1/C(=C\OC)C(=O)OC)c1cc(C(F)(F)F)cc(C(F)(F)F)c1
[19]
  Activity: 85%

## CO/N=C(/C(=O)OC)c1ccccc1CO/N=C(\SC(C)C)c1cc(C(F)(F)F)cc(C(F)(F)F)c1
[19]
  Activity: 85%

## CO/N=C(\C(=O)OC)c1ccccc1CO/N=C(\C)c1cccc(C(F)(F)F)c1
[4]
  Activity: 75%
[11]
  Activity: 100%
[13]
  Activity: 98%
[16]
  Activity: 100%
[19]
  Activity: 100%
